The text below walks through data of patent publication US8148359B2, “Chelating agents of metal ions, their methods of preparation and their applications” (Commissariat a l'Energie Atomique, priority 2009, dated 2012).

A short description of assay [1]: Apparent complexation constants of known chelating agents, Hg(II). It counts as binding. To be noted: pH = 7.4; log Kapp(Hg) - log Kapp(Zn). The text has this:
(§1) In general, the formation of a complex from a metal M and n ligands L is written: M+nL⇄[M(L)n]
(§2) Associated with this reaction is an apparent complexation constant log Kapp, where: Kapp=[ML]/[M][L]tot in which: • [ML] is the concentration of complex, • [M] is the concentration of metal, and • [L]tot is the concentration of […] ligand (whatever its protonated form).

A short description of assay [2]: Cu(I) affinity by competition with bathocuproine disulfonate (BCS), UV-visible. It counts as binding. To be noted: for BCS equivalents (number of equivalents of BCS relative to Cu necessary to displace 50% of the copper complexed by the ligand): [Cu]0 = 0.9 [L]o, 20 mM phosphate buffer, pH 7.4, 298 K; for Cu/Zn Sel. (log Kapp(Cu) - log Kapp(Zn)): Cu(I) versus Zn(II); for Kapp for Cu(I): pH 7.4, 20 mM phosphate buffer. The method, then:
Since the —SH thiol functions of the chelating agents are capable of becoming oxidized in air, all the solutions were prepared in a glovebox under an argon atmosphere. Ligand solutions were then prepared, before each experiment, using water that had been deoxygenated and purified with a Millipore Milli-Q® system containing 20 mM of a solution of phosphate buffer (pH=7.4) and of acetonitrile (v/v: 9/1).
This method uses 5,5′-dithiobis-2-nitrobenzoic acid (DNTB) as indicator, each free thiol group present in the ligand producing 1 equivalent of TNB^2− (ε^412 nm (TNB^2−)=14 150 M^−1.cm^−1, ε^412 nm being the molar extinction coefficient for TNB^2− at 412 nm). The concentrations of the ligand solution are between 30 and 100 μm.
The solutions of Cu(I) copper were prepared by dissolving an appropriate amount of Cu(CH3CN)4 PF6 in deoxygenated acetonitrile. The final concentration is determined by adding an excess of sodium bathocuproine disulfonate (Na2BCS) and by measuring the absorbance of the Cu(BCS)2^3− (λmax=483 nm, ε=13 300 M^−1.cm^−1).
The affinity constants were measured by means of a known competitor having a strong affinity for Cu(I), bathocuproine disulfonate (BCS), which forms Cu(I) complexes of known stability according to the reaction below:
The higher this percentage, the higher the affinity of the sulfur-containing ligand for Cu(I).
The complexes of Cu(I) copper with the ligands are quantitatively determined with bathocuproine disulfonate (BCS) with the aim of measuring their affinity constants. […] The formation of the complex is then carried out by stirring the mixture for 10 minutes under argon.
Aliquots of a solution of bathocuproine disulfonate (BCS) in the same buffer solution are then added to the ligand-copper complex.
The UV-visible spectra are then recorded, and the absorbance stability is verified before the addition of the other aliquots.

Assay [3] is described as follows: Hg(II) affinity by competition with EDTA. Type of assay: binding. As for the experimental part: For Hg(II), which has a very high affinity for thiolate ligands, we performed a competition with EDTA having a known affinity constant (cf. Table IV) according to the following reaction: HgL+EDTA→L+HgEDTA
A solution of mercury is prepared by dissolving HgCl2 in water. An HgL complex is formed by adding aliquots of this mercury solution to a solution of ligand in a 20 mM phosphate buffer solution at pH=7.4, up to 0.9 equivalent. The change in the LMCT band for Hg(II) at 290 nm is subsequently followed by titration with a 5 mM solution of Na2EDTA.

For assay [4] the following is noted: pH = 7.4; difference matches the Cu(II) and Zn(II) values of the table.
Description: as §1, §2

A short description of assay [5]: Apparent complexation constants of known chelating agents, Cu(I). To be noted: pH = 7.4; difference matches the Cu(I) and Zn(II) values of the table. Type of assay: binding.
Description: Associated with this reaction is an apparent complexation constant log Kapp, where: Kapp=[ML]/[M][L]tot in which: • [ML] is the concentration of complex, • [M] is the concentration of metal, and • [L]tot is the concentration of free ligand (whatever its protonated form).

Like-named read-outs stand apart in the source and are kept apart here.

Regarding `OCC(S)CS` (stereo not drawn) [BAL, 2,3-dimercaptopropanol], the Hg/Zn selectivity in assay [1] was 12.2.

For the compound `O=C(CN(CC(=O)NC(CS)C(=O)O)CC(=O)NC(CS)C(=O)O)NC(CS)C(=O)O` (stereo not drawn) [Compound 3, NTA(CysOH)3], in assay [2], the “BCS equivalents (number of equivalents of BCS relative to Cu necessary to displace 50% of the copper complexed by the ligand)” value stood at 3.5 equivalents.

`CCOC(=O)C(CS)NC(=O)CN(CC(=O)NC(CS)C(=O)OCC)CC(=O)NC(CS)C(=O)OCC` (stereo not drawn) [Compound 4, NTA(CysOC2H5)3]: the “Cu/Ca Sel. (log Kapp(Cu) - log Kapp(Ca))” value in assay [2] (Cu(I) versus Ca(II)) is given as above 16. For the same compound, in assay [2], the “Cu/Zn Sel. (log Kapp(Cu) - log Kapp(Zn))” value is 9.9, the “BCS equivalents (number of equivalents of BCS relative to Cu necessary to displace 50% of the copper complexed by the ligand)” value turned out to be 57 equivalents and the “Kapp for Cu(I)” value is given as 10^19. Further, the “Hg/Ca Sel. (log Kapp(Hg) - log Kapp(Ca))” value in assay [3] (Hg(II) versus Ca(II)) was above 19.5. The “Hg/Zn Sel. (log Kapp(Hg) - log Kapp(Zn))” value in assay [3] (Hg(II) versus Zn(II)) is on record as above 13.4.

In the case of `NC(=O)[C@H](CS)NC(=O)CN(CC(=O)N[C@@H](CS)C(N)=O)CC(=O)N[C@@H](CS)C(N)=O` [Compound 6, NTA(CysNH2)3], in assay [2], the “BCS equivalents (number of equivalents of BCS relative to Cu necessary to displace 50% of the copper complexed by the ligand)” value is reported as 50 equivalents and the “Kapp for Cu(I)” value is reported as 10^19.

Consider `CCOC(=O)[C@H](CS)NC(=O)CN1CCN(CC(=O)N[C@@H](CS)C(=O)OCC)CCN(CC(=O)N[C@@H](CS)C(=O)OCC)CC1` [Compound 9, NOTA(CysOC2H5)3], for which, in assay [2], the “Cu/Zn Sel. (log Kapp(Cu) - log Kapp(Zn))” value is recorded as 7.5-9.5 and the “BCS equivalents (number of equivalents of BCS relative to Cu necessary to displace 50% of the copper complexed by the ligand)” value is 12 equivalents.

As to `O=C(O)CN(CCN(CC(=O)O)CC(=O)O)CC(=O)O` [EDTA, ethylenediaminetetraacetic acid], the Cu/Zn selectivity in assay [4] stood at 2.3. In addition, the Hg/Zn selectivity in assay [1] worked out at 5.

With `CC(C)(S)[C@@H](N)C(=O)O` [Pen, D-penicillamine], in assay [5], the Cu/Zn selectivity was determined as 2.5. In addition, the Hg/Zn selectivity in assay [1] turned out to be 9.1.

For `NCCNCCNCCN` [Trien, triethylenetetramine], the Cu/Zn selectivity in assay [4] worked out at 8.1. For the same compound, the Hg/Zn selectivity in assay [1] worked out at 12.7.
